# According to patent publication US7314939B2, “Compositions and methods for inhibiting TGF-β” (Millennium Pharmaceuticals, Inc., priority 2003, dated 2008):
# Tests used:
# [1] = molecular target: T1, ALK5 (Homo sapiens, UniProt P36897); test: TGF-β (ALK5) phosphorylation: GST-ALK5 autophosphorylation screen and in vitro kinase of HA-ALK5 (IC50); assay type: biochemical
# T1 construct: An expression construct containing full-length ALK5 C-terminally tagged with HA was transfected into COS7 cells; made in house; host or cells: COS7 cells (transfected; isolated by anti-HA immunoprecipitation)
# T1 sequence (P36897 34-503): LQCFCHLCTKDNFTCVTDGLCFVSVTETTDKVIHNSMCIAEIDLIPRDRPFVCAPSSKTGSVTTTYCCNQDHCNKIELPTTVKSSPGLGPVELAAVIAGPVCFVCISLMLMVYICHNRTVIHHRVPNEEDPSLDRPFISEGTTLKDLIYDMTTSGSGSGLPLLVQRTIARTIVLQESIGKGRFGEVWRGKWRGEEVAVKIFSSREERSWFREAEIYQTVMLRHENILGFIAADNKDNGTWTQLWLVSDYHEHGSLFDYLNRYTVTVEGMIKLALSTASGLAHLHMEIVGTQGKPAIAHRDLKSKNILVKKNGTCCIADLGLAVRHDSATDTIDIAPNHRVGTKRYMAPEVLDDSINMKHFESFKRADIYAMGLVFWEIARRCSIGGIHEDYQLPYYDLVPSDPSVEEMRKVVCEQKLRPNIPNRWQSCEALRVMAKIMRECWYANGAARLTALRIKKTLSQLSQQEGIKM
# Description: The autophosphorylation of GST-ALK5 was developed for primary screening of the compounds that inhibit TGF-β signaling by interacting with ALK5. HA-ALK5 assay is a secondary screening assay to confirm the inhibitory compounds that were selected from the primary screening, and also for the determination of IC50 for each compound.
# Autophosphorylation Assay of GST-ALK5
# The cytoplasmic domain of ALK5 was fused to glutathione S-transferase (GST) and the GST-ALK5 fusion protein was expressed in a baculovirus expression system. GST-ALK5 was isolated with glutathione Sepharose 4B beads (Pharmacia Biotech, Sweden) and stored at −80° C. until use.
# For detection of GST-ALK5 autophosphorylation and screening of inhibitory compounds, an aliquot of GST-ALK5 in 1× kinase buffer including [^33P]-γ-ATP was added to 96-well plates in the presence or absence of compounds. The mixture was then incubated at room temperature for 30 min and transferred to each well of a Filterplate with vacuum. The Filterplate was then washed 3 times and radioactivity in each well was counted in a Packard TopCount.
# In Vitro Kinase of HA-ALK5
# An expression construct containing full-length ALK5 C-terminally tagged with HA was transfected into COS7 cells, and HA-ALK5 was isolated by immunoprecipitation with anti-HA antibodies. Aliquots of immunoprecipitated HA-ALK5 in 1× kinase buffer plus [^33P]-γ-ATP was added to 96-well plates in the presence or absence of different concentrations of testing compounds, and incubated at room temperature for 60 min. The reaction mixture was then transferred to a Filterplate. The plate was washed three times and radioactivity in each well counted. IC50 for each compound was determined using the Prism3 program.
# [2] = test system: TGF-β stimulated normal human lung fibroblasts (NHLF); test: Cell-based assays in TGF-β stimulated NHLF (P-Smad2, PAI-1, collagen, fibronectin); conditions: Fibroblast, P-Smad2, PAI-1, collagen and fibronectin assays
# Protocol: ELISA Assay for TGF-β Stimulated Smad2 Phosphorylation
# Serum-starved normal human lung fibroblasts (NHLF) in 24-well plate were treated with or without different concentrations of testing compounds for 30 min. The cells were then stimulated with TGF-β for one hour. After fixing, permeabilizing, and blocking, the cells were incubated with phospho-Smad2 specific antibodies followed by HRP-conjugated secondary antibody. The extent of Smad2 phosphorylation was then detected using HRP substrate and read with an ELISA plate reader. IC50 for each testing compound was determined using the PRISM3 program.
# ELISA Assay for TGF-β Stimulated PAI-1 Secretion
# Serum-starved NHLF in 24-well plates were treated with or without different concentrations of testing compounds for 30 min. The cells were then stimulated with TGF-β and incubated in a 37° C. incubator for 24 hours. The media were collected and added to 96-well plates coated with anti-PAI-1 antibodies. The secreted PAI-1 was then detected with another PAI-1 specific antibody followed by HRP-conjugated secondary antibody. The secretion of PAI-1 was detected using HRP substrate and read with an ELISA plate reader. IC50 for each testing compound was determined using the PRISM3 program.
# SIRCOL Collagen Assay for TGF-β Stimulated Cells
# Serum-starved NHLF in 24-well plates were treated with or without different concentrations of testing compounds for 30 min. The cells were then stimulated with TGF-β and incubated for 24 hours. The media were collected and SIRCOL dye reagent was added. After spinning and washing, the pellets were resuspended in alkali reagent and read with an ELISA plate reader. IC50 for each testing compound was determined using the PRISM3 program.
# Detection of TGF-β Stimulated Fibronectin Expression
# Serum-starved NHLF in 24-well plates were treated with or without different concentrations of testing compounds for 30 min. The cells were then stimulated with TGF-β and incubated for 24 hours. […] The signal was then detected using an ELISA reader. IC50 for each testing compound was determined using the PRISM3 program. […]
IC50 [1],Structure (SMILES),IC50 [2]
< 10 µM,"Fc1c(-c2cccc(Cl)c2)nc2ccccc2c1Nc1ccncc1 [Compound 7, [2-(3-Chloro-phenyl)-3-fluoro-quinolin-4-yl]-pyridin-4-yl-amine]",< 10 µM
< 10 µM,"Fc1c(-c2ccc(Cl)s2)nc2ccccc2c1Nc1ccncc1 [Compound 51, [2-(5-Chloro-thiophen-2-yl)-3-fluoro-quinolin-4-yl]-pyridin-4-yl-amine]",< 10 µM
< 10 µM,"Cc1ccc(-c2nc3ccccc3c(Nc3ccncc3)c2F)o1 [Compound 55, [3-Fluoro-2-(5-methyl-furan-2-yl)-quinolin-4-yl]-pyridin-4-yl-amine]",< 10 µM
